The source of these data is PubChem BioAssay AID743440 (Broad Institute, 2014).

Structures are written as SMILES. Activity calls are given as the source filed them.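 How the source made its calls: active means AC50 for cell killing below 10 µM, with the signal falling as expected; inactive means the rest, including compounds acting in the opposite direction.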

Assay [1] deals with HepG2 viability, ATP luminescence (CellTiter-Glo), 72 h. Put plainly: toxicity toward HepG2 liver cells – cell-based, plate reader, dry powder, set 11, cytotoxicity control, dose response (AID 743440).
Experiment in assay [2]: as above
Particulars: HepG2 viability, ATP luminescence (CellTiter-Glo), 72 h. Background: Cellular ATP, detected with luciferase, serves as a proxy for viable cell number.

One may read the AC50 as the concentration giving half of the maximal activity seen. Take `CN(CCNC(=O)CSc1c2c(nc3ccc(Cl)cc13)CCCC2)Cc1ccccc1`: in assay [1], the AC50 was > 52 µM (inactive).
The same measure, in the same setting: the value for `O=C(CSc1c2c(nc3ccc(Cl)cc13)CCCC2)N1CCN(Cc2ccccc2)CC1` was > 52 µM (inactive).
Regarding `Cc1ccc2nc(Cl)cc(SCC(=O)NCc3ccco3)c2c1`, the activity change, negative = cytotoxicity in assay [2] (at 26 µM (top of the series)) is -16.7% (inactive).
The same measure, in the same setting: the value for `O=C(CSc1c2c(nc3ccc(Cl)cc13)CCCC2)N1CCNC1=O` was -15.2% (inactive); that for `CCN(CC)C(=O)CSc1c2c(nc3ccc(Cl)cc13)CCCC2` was -8.05% (inactive); that for `CCOC(=O)C1CCN(C(=O)c2ccc(OCC(=O)Nc3ccc(OCC)cc3)c(OC)c2)CC1` was -2.93% (inactive).
Still for that read-out and setting: as for `CN(C(=O)COc1ccccc1C(=O)Nc1ccccc1)c1ccccc1`, the figure is -11.2% (inactive).
Regarding `O=C(COc1ccc(C(=O)NC2CCCCC2)cc1)Nc1cccc(C(F)(F)F)c1`, the AC50 in assay [1] is > 52 µM (inactive).
For `CN(C(=O)COc1ccc(Cl)cc1C(N)=O)c1ccccc1`, in assay [2] (at 26 µM (top of the series)), the activity change, negative = cytotoxicity was 6.24% (inactive).
For the compound `O=C(CSc1c2c(nc3cc(Cl)ccc13)CCCC2)N(Cc1ccco1)C1CCCC1`, the AC50 in assay [1] is > 52 µM (inactive).
`CN(C(=O)COc1ccccc1C(=O)NCCc1ccccc1)c1ccccc1`: in assay [1], the AC50 is > 52 µM (inactive).
With `COCCNC(=O)CSc1c2c(nc3ccc(Cl)cc13)CCCC2`, the AC50 in assay [1] is > 52 µM (inactive).
Regarding `Cn1cc(SCC(=O)NCc2ccco2)c2ccccc21`, the activity change, negative = cytotoxicity in assay [2] (at 26 µM (top of the series)) is -5.75% (inactive).
Still for that read-out and setting: the value for `NC(=O)C1CCN(C(=O)c2ccc(OCC(=O)Nc3cccc(C(F)(F)F)c3)cc2)CC1` was -3.5% (inactive).
With `COc1ccc(CNC(=O)CSc2c3c(nc4ccc(Cl)cc24)CCCC3)cc1`, the AC50 in assay [1] was > 52 µM (inactive).
The same measure, in the same setting: as for `CC1(C)CC(NC(=O)c2ccc(OCC(=O)Nc3cccc(C(F)(F)F)c3)cc2)CC(C)(C)N1`, the figure is > 52 µM (inactive).
As to `Cn1c(=O)cc(SCC(=O)NCc2ccco2)c2ccccc21`, in assay [2] (at 26 µM (top of the series)), the activity change, negative = cytotoxicity is 2.16% (inactive).
Same read-out and setting: as for `O=C(CSc1cccc2cccnc12)NCc1ccco1`, the figure is 9.13% (inactive); as for `O=C(O)CSc1c2c(nc3cc(C(=O)NCc4cccs4)ccc13)CCCC2`, -3.5% (inactive).
With `O=C(CSc1c2c(nc3ccc(Cl)cc13)CCCC2)NC1CCN(Cc2ccccc2)CC1`, in assay [1], the AC50 is 26.3 µM.
On to `CN(C(=O)COc1ccccc1C(N)=O)c1ccccc1`, for which the activity change, negative = cytotoxicity in assay [2] (at 26 µM (top of the series)) is 2.01% (inactive).
Same read-out and setting: as for `O=C(CSc1ccc2ccccc2n1)NCc1ccco1`, the figure is -2.89% (inactive).
For the compound `CCN1CCCC1CNC(=O)CSc1c2c(nc3ccc(Cl)cc13)CCCC2` (configuration not stated), the AC50 in assay [1] was 16.1 µM.
For the compound `CCOC(=O)C1CCN(C(=O)c2ccc(OCC(=O)N3CCOCC3)c(OC)c2)CC1`, the activity change, negative = cytotoxicity in assay [2] (at 26 µM (top of the series)) is -12.3% (inactive).
In the case of `CC(Sc1c2c(nc3ccc(Cl)cc13)CCCC2)C(=O)NCc1ccco1` (configuration not stated), in assay [1], the AC50 was > 52 µM (inactive).
On the same count and under the same terms, as for `CCN(CC)CCCNC(=O)c1ccc(OCC(=O)Nc2ccccc2C(F)(F)F)c(OC)c1`, the figure is > 52 µM (inactive).
The same measure, in the same setting: the value for `Cc1ccc(CNC(=O)CSc2c3c(nc4ccc(Cl)cc24)CCCC3)cc1` was > 52 µM (inactive); that for `COc1cc(C(=O)NCCCN(C)C)ccc1OCC(=O)Nc1cccc(C(F)(F)F)c1` was > 52 µM (inactive).
Still for that read-out and setting: the value for `O=C(CSc1c2c(nc3ccccc13)CCCC2)NCc1ccco1` was > 52 µM (inactive).
In the case of `CN(CCOc1ccccc1)C(=O)c1ccc(OCC(=O)Nc2cccc(C(F)(F)F)c2)cc1`, the activity change, negative = cytotoxicity in assay [2] (at 26 µM (top of the series)) was -1.92% (inactive).
For `O=C(CSc1c2c(nc3ccc(Cl)cc13)CCCC2)N1CCOCC1`, the AC50 in assay [1] was > 52 µM (inactive).
The same measure, in the same setting: the value for `Cc1cccc(NC(=O)CSc2c3c(nc4ccc(Cl)cc24)CCCC3)n1` was 26.2 µM.
The same measure, in the same setting: as for `Cc1ccc(CNC(=O)CSc2c3c(nc4ccc(Cl)cc24)CCCC3)o1`, the figure is > 52 µM (inactive); as for `O=C(CSc1c2c(nc3ccc(Cl)cc13)CCCC2)NC1CC1`, > 52 µM (inactive).
Same read-out and setting: the value for `COc1cc(CNCCCN2CCOCC2)ccc1OCC(=O)Nc1cccc(C(F)(F)F)c1` was > 24 µM (inactive); that for `CCCCOc1ccc(NC(=O)COc2ccccc2C(=O)NCCOc2ccccc2)cc1` was > 52 µM (inactive).
For `O=C(CSc1c2c(nc3ccc(Cl)cc13)CCCC2)NCc1ccc2c(c1)OCO2`, the AC50 in assay [1] was > 52 µM (inactive).
`COc1ccc(N(Cc2cccs2)C(=O)COc2ccccc2C(=O)Nc2ccccc2)cc1`: in assay [2] (at 26 µM (top of the series)), the activity change, negative = cytotoxicity was -1.88% (inactive).
Still for that read-out and setting: the value for `COC(=O)CCCN(C)C(=O)c1ccc(OCC(=O)Nc2cccc(OC)c2)cc1` was -8.54% (inactive).
Regarding `O=C(CSc1c2c(nc3ccc(Cl)cc13)CCCC2)NCc1cccs1`, the activity change, negative = cytotoxicity in assay [2] (at 12 µM (top of the series)) is -11.9% (inactive).
As for `O=C(CSc1c2c(nc3ccc(Cl)cc13)CCCC2)N1CCCCC1`, the activity change, negative = cytotoxicity in assay [2] (at 26 µM (top of the series)) was -19.8% (inactive).
Regarding `COc1ccc(OCCNC(=O)c2ccccc2OCC(=O)Nc2ccc(NC(C)=O)cc2)cc1`, the activity change, negative = cytotoxicity in assay [2] (at 26 µM (top of the series)) was -7.48% (inactive).
Still for that read-out and setting: as for `O=C(COc1ccc(C(=O)NCC2CCCO2)cc1)Nc1cccc(C(F)(F)F)c1` (configuration not stated), the figure is -9.73% (inactive).
For the compound `CCCNC(=O)CSc1c2c(nc3ccc(Cl)cc13)CCCC2`, in assay [1], the AC50 was > 52 µM (inactive).
As for `O=C(COc1ccc(C(=O)N2CCC2)cc1)Nc1cccc(C(F)(F)F)c1`, the activity change, negative = cytotoxicity in assay [2] (at 26 µM (top of the series)) was -3.29% (inactive).
For the compound `CN(C)c1ccc(NC(=O)COc2ccccc2C(=O)N2CCOCC2)cc1`, the activity change, negative = cytotoxicity in assay [2] (at 26 µM (top of the series)) was 8.33% (inactive).
Still for that read-out and setting: the value for `Cc1ccc(NC(=O)COc2ccccc2C(=O)NCCN(C)C)cc1` was -14.7% (inactive); that for `O=C(COc1ccccc1C(=O)NCc1ccccc1)Nc1ccccc1` was -9.2% (inactive).
Turning to `O=C(CSc1c2c(nc3ccc(Cl)cc13)CCCC2)Nc1ccc(Cl)cc1`, the AC50 in assay [1] is > 52 µM (inactive).
Still for that read-out and setting: the value for `O=C(COc1ccccc1C(=O)NCCOc1ccc(Cl)cc1)Nc1cccc(Cl)c1` was > 52 µM (inactive).
In the case of `O=C(COc1ccc(C(=O)N2CCN(C(=O)C3CC3)CC2)cc1)Nc1cccc(C(F)(F)F)c1`, the activity change, negative = cytotoxicity in assay [2] (at 26 µM (top of the series)) was -22.9% (inactive).
On the same count and under the same terms, the value for `CCOc1ccc(NC(=O)COc2ccc(C(=O)N3CCC(C(N)=O)CC3)cc2OC)cc1` was -12.6% (inactive).
